For assay [1], the target named is CDK2 (Homo sapiens, UniProt P24941). Briefly: CDK2 inhibition. Type of assay: biochemical.
Assay [2] concerns the target HDAC 1 (Homo sapiens, UniProt Q13547). Briefly: HDAC 1 inhibition assay with about 3 hours enzyme/compound preincubation (fluorophore/quencher peptide substrate). The assay is classed as biochemical. To be noted: 3-hour preincubation of enzyme with compound; read-out: HDAC 1 inhibitory activity (IC50 [μM]) (3-hour preincubation).

As a reminder, the IC50 is the concentration that inhibits the measured activity by half.

Sequence of HDAC 1 (Q13547 whole entry, species assumed): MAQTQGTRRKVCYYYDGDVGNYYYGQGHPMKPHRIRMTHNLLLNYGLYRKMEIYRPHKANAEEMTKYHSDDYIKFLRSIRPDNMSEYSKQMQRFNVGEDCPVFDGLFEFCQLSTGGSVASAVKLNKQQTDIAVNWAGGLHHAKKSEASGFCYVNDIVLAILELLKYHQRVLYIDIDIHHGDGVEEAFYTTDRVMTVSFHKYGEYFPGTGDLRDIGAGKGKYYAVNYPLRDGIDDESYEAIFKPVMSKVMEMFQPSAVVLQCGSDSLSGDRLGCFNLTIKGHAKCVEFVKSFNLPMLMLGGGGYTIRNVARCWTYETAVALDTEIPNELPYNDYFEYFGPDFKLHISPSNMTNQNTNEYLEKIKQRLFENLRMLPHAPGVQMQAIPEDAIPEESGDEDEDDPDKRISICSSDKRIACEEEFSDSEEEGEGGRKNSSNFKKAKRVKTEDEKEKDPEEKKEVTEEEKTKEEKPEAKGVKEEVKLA

For `Cc1nc2ccc(C(=O)NCCN(C)C)cn2c1-c1ccnc(Nc2ccc(C(=O)Nc3ccccc3N)cc2)n1` [Example 37, 3-(2-(4-(2-aminophenylcarbamoyl)phenylamino)pyrimidin-4-yl)-N-(2-(dimethylamino)ethyl)-2-methylimidazo[1,2-a]pyridine-6-carboxamide], the IC50 in assay [1] worked out at 1.88 µM; in assay [2], 0.132 µM.

For `Cc1nc2ccccn2c1-c1ccnc(Nc2ccc(C(=O)NO)cc2)n1` [Example 1, N-Hydroxy-4-(4-(2-methylimidazo[1,2-a]pyridin-3-yl)-pyrimidin-2-ylamino)-benzamide], the IC50 turned out to be 0.044 µM in assay [1] and 0.067 µM in assay [2].

For the molecule `Cc1nc2ccccn2c1-c1ccnc(Nc2csc(C(=O)NO)c2)n1` [Example 71, N-hydroxy-4-(4-(2-methylimidazo[1,2-a]pyridin-3-yl)pyrimidin-2-ylamino)thiophene-2-carboxamide], the half-maximal inhibitory concentration (IC50) in assay [1] was determined as 0.026 µM; in assay [2], 0.185 µM.

On to `O=C(NO)c1cccc(Nc2nccc(-c3cnc4ccccn34)n2)c1` [Example 7, N-Hydroxy-3-(4-imidazo[1,2-a]pyridin-3-yl-pyrimidin-2-ylamino)-benzamide], for which the IC50 in assay [1] was determined as 0.069 µM; in assay [2] it was 0.017 µM.

With `Cc1nc2ccccn2c1-c1ccnc(Nc2ncc(C(=O)Nc3ccccc3N)s2)n1` [Example 63, N-(2-aminophenyl)-2-(4-(2-methylimidazo[1,2-a]pyridin-3-yl)pyrimidin-2-ylamino)thiazole-5-carboxamide], the half-inhibitory concentration (IC50) in assay [1] worked out at 3.53 µM; in assay [2] it was 0.224 µM.

On to `Nc1ccccc1NC(=O)c1ccc(Nc2nccc(-c3cnc4ccccn34)n2)cc1` [Example 6, N-(2-Amino-phenyl)-4-(4-imidazo[1,2-a]pyridin-3-yl-pyrimidin-2-ylamino)-benzamide], for which the 50% inhibitory concentration (IC50) in assay [1] is 0.084 µM; in assay [2], 0.197 µM.

`Cc1nc2cc(C#N)ccn2c1-c1ccnc(Nc2ccc(C(=O)Nc3ccccc3N)cc2)n1` [Example 24, N-(2-Amino-phenyl)-4-[4-(7-cyano-2-methyl-imidazo[1,2-a]pyridin-3-yl)-pyrimidin-2-ylamino]-benzamide]: the concentration for half-maximal inhibition (IC50) in assay [1] amounted to 0.5 µM; in assay [2], 0.18 µM.

For the molecule `Cc1nc2cc(C(F)(F)F)ccn2c1-c1ccnc(Nc2ccc(C(=O)Nc3ccccc3N)cc2)n1` [Example 10, N-(2-Amino-phenyl)-4-[4-(2-methyl-7-trifluoromethyl-imidazo[1,2-a]pyridin-3-yl)-pyrimidin-2-ylamino]-benzamide], the 50% inhibitory concentration (IC50) was 0.084 µM in assay [1] and above 10 µM in assay [2].

For `Cc1nc2cc(OCCN3CCOCC3)ccn2c1-c1ccnc(Nc2ccc(C(=O)Nc3ccccc3N)cc2)n1` [Example 29, N-(2-aminophenyl)-4-(4-(2-methyl-7-(2-morpholinoethoxy)imidazo[1,2-a]pyridin-3-yl)pyrimidin-2-ylamino)benzamide], the IC50 in assay [1] was found to be 2.13 µM; in assay [2], 0.315 µM.

With `O=C(NO)c1ccc(N(CC(F)(F)F)c2nccc(-c3cnc4ccccn34)n2)cc1` [Example 57, N-Hydroxy-4-[(4-imidazo[1,2-a]pyridin-3-yl-pyrimidin-2-yl)-(2,2,2-trifluoro-ethyl)-amino]-benzamide], the IC50 in assay [1] came to 2.87 µM; in assay [2] it was 0.147 µM.

As to `Nc1ccccc1NC(=O)c1ccc(N(CC(F)(F)F)c2nccc(-c3cnc4ccccn34)n2)cc1` [Example 58, N-(2-Amino-phenyl)-4-[(4-imidazo[1,2-a]pyridin-3-yl-pyrimidin-2-yl)-(2,2,2-trifluoro-ethyl)-amino]-benzamide], the IC50 in assay [1] was above 40 µM; in assay [2], 5.58 µM.

Take `Cc1nc2cnccn2c1-c1ccnc(Nc2ccc(C(=O)NO)cc2)n1` [Example 19, N-Hydroxy-4-[4-(2-methyl-imidazo[1,2-a]pyrazin-3-yl)-pyrimidin-2-ylamino]-benzamide]: the 50% inhibitory concentration (IC50) in assay [1] turned out to be 0.07 µM; in assay [2], 0.0937 µM.

Take `COc1ccc2nc(C)c(-c3ccnc(Nc4ccc(C(=O)Nc5ccccc5N)cc4)n3)n2c1` [Example 42, N-(2-Amino-phenyl)-4-[4-(6-methoxy-2-methyl-imidazo[1,2-a]pyridin-3-yl)-pyrimidin-2-ylamino]-benzamide]: the IC50 in assay [1] was found to be 0.29 µM; in assay [2], 0.388 µM.

The values above are taken from US8124764B2, “Fused heterocyclyc inhibitor compounds” (Gilead Sciences, Inc., priority 2008, dated 2012).
